From patent US8946216B2, “Indazole derivatives useful as ERK inhibitors” (Merck Sharp & Dohme Corp., priority 2010, dated 2015)
pIC50, pKd: −log10 of the molar value.

Experiments:
ERK protein = ERK protein (Homo sapiens, UniProt P28482); assay: TdF (Temperature Dependence Fluorescence, thermal shift) assay for ERK; format: binding; settings: read-out: TdF Kd; 3 μM ERK protein, 15, 50 or 100 μM compound, Sypro Orange; Kd calculated from ΔTm; uncertainty estimated ±50%
In short: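 Thermal shift with Sypro Orange: samples containing 3 μM in 2% final DMSO heated 30 to 90 °C at 1 °C/min, fluorescence at ex 490/em 560 nm. Kd derived from ΔTm versus protein alone by the Brandts–Lin model, with ΔCpL set to 0 and ΔHL to −7 kcal/mol; uncertainty ±50%.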

[1] = target: fully phosphorylated, active Mouse ERK2 protein (Mus musculus, UniProt P63085); assay: Active ERK2 (aERK) assay, IMAP format; format: biochemical; settings: 30 min preincubation; 1 μM substrate peptide, 30 μM ATP; fluorescence polarization; read-out: aERK2 IC50
Experimental: Active ERK2 (aERK) Assay:
Activated ERK2 activity was also determined in the IMAP assay format using the procedure outlined above. 1 μl of 25× compound was added to 14 μl of kinase buffer containing 0.25 ng fully phosphorylated, active Mouse ERK2 protein. Following a 30 minute incubation, the reactions were initiated by addition of 10 μl of kinase buffer containing 1 μM ERK2 IMAP substrate peptide (0.9 μM unlabeled IPTTPITTTYFFFK--CONH2 and 100 nM IPTTPITTTYFFFK(5-carboxyfluorescein)-CONH2) and 30 μM ATP. Reactions proceeded for 30 minutes before termination by addition of 60 μl IMAP detection beads in binding buffer. Plates were read as above after 30 minute binding equilibration. Active compounds were reconfirmed in an independent assay.

[2] = target: unphosphorylated Mouse ERK2 protein (inactive ERK2) (Mus musculus, UniProt P63085); assay: Coupled ERK2 (cERK) assay, coupled MEK1/ERK2 IMAP; format: biochemical; settings: 30 min preincubation with inactive ERK2, then activation by human MEK1; 30 μM ATP; fluorescence polarization; read-out: cERK2 IC50
In short: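 Compound was preincubated with 0.4 ng unphosphorylated mouse ERK2 in Tris pH 7.2/MgCl2/DTT buffer (6.7% DMSO). ERK2 was then activated for 1 h by 2 ng active human MEK1 with 4 μM IMAP substrate peptide (100 nM fluorescein-labelled) and 30 μM ATP (final, 4% DMSO). Phosphorylation was read by IMAP bead fluorescence polarization after 30 min binding.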

unphosphorylated Mouse ERK2 protein (inactive ERK2), sequence (P63085 whole entry): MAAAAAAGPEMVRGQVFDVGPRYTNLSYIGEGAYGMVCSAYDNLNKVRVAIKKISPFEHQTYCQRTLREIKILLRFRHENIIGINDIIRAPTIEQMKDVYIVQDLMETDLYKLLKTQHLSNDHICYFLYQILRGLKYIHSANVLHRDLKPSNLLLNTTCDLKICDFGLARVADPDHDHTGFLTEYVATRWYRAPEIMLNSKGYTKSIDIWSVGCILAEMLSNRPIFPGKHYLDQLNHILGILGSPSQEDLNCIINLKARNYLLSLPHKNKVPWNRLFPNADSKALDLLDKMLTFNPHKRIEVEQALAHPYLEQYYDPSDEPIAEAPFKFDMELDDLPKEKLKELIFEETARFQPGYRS
fully phosphorylated, active Mouse ERK2 protein, sequence (P63085 whole entry): as above
ERK protein, sequence (P28482 2-360): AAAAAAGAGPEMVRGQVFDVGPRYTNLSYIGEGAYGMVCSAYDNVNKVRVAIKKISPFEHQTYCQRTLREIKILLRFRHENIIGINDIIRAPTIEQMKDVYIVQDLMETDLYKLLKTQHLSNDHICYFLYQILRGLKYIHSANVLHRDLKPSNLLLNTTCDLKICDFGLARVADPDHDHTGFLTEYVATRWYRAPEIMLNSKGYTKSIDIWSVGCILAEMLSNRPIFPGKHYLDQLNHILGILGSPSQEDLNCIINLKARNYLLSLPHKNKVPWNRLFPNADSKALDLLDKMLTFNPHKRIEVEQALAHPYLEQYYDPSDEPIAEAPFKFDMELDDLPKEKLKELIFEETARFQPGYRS

O=C(Nc1ccc2[nH]nc(-c3ccncc3)c2c1)[C@@H]1CN(Cc2ccccc2)CCN1 [Compound 57, 4-(PHENYLMETHYL)-N-[3-(4-PYRIDINYL)-1H-INDAZOL-5-YL]-2(S)-PIPERAZINECARBOXAMIDE] gave a pKd (ERK protein) of 7.31, a pIC50 [1] of 7.28 and a pIC50 [2] of 7.21.

For O=C(Nc1ccc2[nH]nc(-c3ccncc3)c2c1)C1CN(C(=O)OCc2ccccc2)CCN1 (stereo not drawn) [Compound 58, PHENYLMETHYL 3-[[[3-(4-PYRIDINYL)-1H-INDAZOL-5-YL]AMINO]CARBONYL]-1-PIPERAZINECARBOXYLATE], the pKd (ERK protein) was 6.22, the pIC50 [1] was 5.66 and the pIC50 [2] was 6.02.

O=C(Nc1ccc2[nH]nc(-c3ccncc3)c2c1)[C@H]1CN(Cc2ccccc2)CCN1 [Compound 59, 4-(PHENYLMETHYL)-N-[3-(4-PYRIDINYL)-1H-INDAZOL-5-YL]-2(R)-PIPERAZINECARBOXAMIDE] gave a pKd (ERK protein) of 7.68, a pIC50 [1] of 7.79 and a pIC50 [2] of 7.67.

With O=C(Nc1ccc2[nH]nc(-c3ccncc3)c2c1)[C@@H]1CN(Cc2ccccc2F)CCS1 [Compound 60, 4-[(2-FLUOROPHENYL)METHYL]-N-[3-(4-PYRIDINYL)-1H-INDAZOL-5-YL]-2(S)-THIOMORPHOLINECARBOXAMIDE] the pKd (ERK protein) was 8.22, the pIC50 [1] was 6.76 and the pIC50 [2] was 7.14.

O=C(Nc1ccc2[nH]nc(-c3ccncc3)c2c1)[C@H]1CN(Cc2ccccc2F)CCS1 [Compound 61, 4-[(2-FLUOROPHENYL)METHYL]-N-[3-(4-PYRIDINYL)-1H-INDAZOL-5-YL]-2(R)-THIOMORPHOLINECARBOXAMIDE] showed a pKd (ERK protein) of 8.30, a pIC50 [1] of 8.09 and a pIC50 [2] of 7.70.

In the case of CSC1(C(=O)Nc2ccc3[nH]nc(-c4ccncc4)c3c2)CCN(Cc2ccccc2F)C1 (stereo not drawn) [Compound 63, 1-[(2-FLUOROPHENYL)METHYL]-3-(METHYLTHIO)-N-[3-(4-PYRIDINYL)-1H-INDAZOL-5-YL]-3-PYRROLIDINECARBOXAMIDE], the pKd (ERK protein) was 7.87, the pIC50 [1] was 6.68 and the pIC50 [2] was 6.92.

For O=C(Nc1ccc2[nH]nc(-c3ccncc3)c2c1)C1CCN(Cc2ccccc2)C1 (stereo not drawn) [Compound 64, 1-(PHENYLMETHYL)-N-[3-(4-PYRIDINYL)-1H-INDAZOL-5-YL]-3-PYRROLIDINECARBOXAMIDE], the pKd (ERK protein) was 7.45, the pIC50 [1] was 6.61 and the pIC50 [2] was 6.77.

O=C(Nc1ccc2[nH]nc(-c3ccncc3)c2c1)C1CCN(Cc2ccccc2F)C1 (stereo not drawn) [Compound 65, 1-[(2-FLUOROPHENYL)METHYL]-N-[3-(4-PYRIDINYL)-1H-INDAZOL-5-YL]-3-PYRROLIDINECARBOXAMIDE] showed a pKd (ERK protein) of 7.53, a pIC50 [1] of 7.00 and a pIC50 [2] of 7.11.

Work on O=C(Nc1ccc2[nH]nc(-c3ccncc3)c2c1)C1(CO)CCCN(Cc2ccccc2)C1 (stereo not drawn) [Compound 66, 3-(HYDROXYMETHYL)-1-(PHENYLMETHYL)-N-[3-(4-PYRIDINYL)-1H-INDAZOL-5-YL]-3-PIPERIDINECARBOXAMIDE] yielded a pKd (ERK protein) of 6.98, a pIC50 [1] of 6.36 and a pIC50 [2] of 6.00.

O=C(Nc1ccc2[nH]nc(-c3ccncc3)c2c1)C1CN(Cc2ccccc2F)CC[S+]1[O-] (stereo not drawn) [Compound 69, 4-[(2-FLUOROPHENYL)METHYL]-N-[3-(4-PYRIDINYL)-1H-INDAZOL-5-YL]-2-THIOMORPHOLINECARBOXAMIDE, 1-OXIDE] was tested, and the pKd (ERK protein) was 8.36, the pIC50 [1] was 8.57 and the pIC50 [2] was 8.08.

Molecule O=C(Nc1ccc2[nH]nc(-c3ccncc3)c2c1)C1CN(Cc2ccccc2F)CCS1(=O)=O (stereo not drawn) [Compound 70, 4-[(2-FLUOROPHENYL)METHYL]-N-[3-(4-PYRIDINYL)-1H-INDAZOL-5-YL]-2-THIOMORPHOLINECARBOXAMIDE, 1,1-DIOXIDE] has a pKd (ERK protein) of 7.92, a pIC50 [1] of 7.86 and a pIC50 [2] of 7.75.

For O=C(Nc1ccc2[nH]nc(-c3ccncc3)c2c1)C1CNCC(c2ccccc2)C1 (stereo not drawn) [Compound 79, 5-PHENYL-N-[3-(4-PYRIDINYL)-1H-INDAZOL-5-YL]-3-PIPERIDINECARBOXAMIDE], the pKd (ERK protein) was 8.10, the pIC50 [1] was 6.91 and the pIC50 [2] was 7.16.
